Source: US7462600B2, “Macrolides” (Pfizer Inc, priority 2004, dated 2008)
Converted amounts (≈) assume the structure as drawn. Where two headings read alike, the source gives them in different places.

Key:
Type in all cases: cell-based
[1] = system: Streptococcus pyogenes 1079; assay: MIC, microtiter broth dilution (NCCLS M100-S14), S. pyogenes 1079 (ermB)
Protocol: (§1) The assay described herein includes a panel of bacterial strains assembled to include a variety of target pathogenic species, including representatives of macrolide resistance mechanisms that have been characterized. In many cases, both the macrolide-susceptible parent strain and the macrolide-resistant strain derived from it are available to provide a more accurate assessment of the compound's ability to circumvent the resistance mechanism. The assay is performed in microtiter trays and interpreted according to Performance Standards for Antimicrobial Susceptibility Testing; 14th Informational Supplement (M100-S14), published by The National Committee for Clinical Laboratory Standards (NCCLS) guidelines; the MIC is used to compare strains. Compounds are initially dissolved in DMSO as 40 mg/ml stock solutions.

[2] = system: Streptococcus pneumoniae 1095; settings: microtiter broth dilution
Protocol: as §1

[3] = system: Streptococcus pneumoniae 1175; settings: microtiter broth dilution
Protocol: as §1

[4] = system: Haemophilus influenzae 1218; assay: MIC, microtiter broth dilution (NCCLS M100-S14), H. influenzae 1218 (susceptible)
Protocol: as §1

[5] = system: Streptococcus pneumoniae 1016; assay: MIC, microtiter broth dilution (NCCLS M100-S14), S. pneumoniae 1016 (susceptible)
Protocol: as §1

Row | Compound | MIC S. pyogenes 1079 ([1]; S. pyogenes 1079 (ermB)) [µg/mL] | MIC S. pneumo. 1095 ([2]; S. pneumoniae 1095 (ermB)) [µg/mL] | MIC S. pneumo. 1175 ([3]; S. pneumoniae 1175 (mefA)) [µg/mL] | MIC H. influenzae 1218 ([4]; H. influenzae 1218 (susceptible)) [µg/mL] | MIC S. pneumo. 1016 ([5]; S. pneumoniae 1016 (susceptible)) [µg/mL] | MIC S. pyogenes 1079 ([1]; Streptococcus pyogenes 1079) [µg/mL] | MIC S. pneumo. 1095 ([2]; Streptococcus pneumoniae 1095) [µg/mL] | MIC S. pneumo. 1175 ([3]; Streptococcus pneumoniae 1175) [µg/mL] | MIC H. influenzae 1218 ([4]; Haemophilus influenzae 1218) [µg/mL] | MIC S. pneumo. 1016 ([5]; Streptococcus pneumoniae 1016) [µg/mL]
1 | 3-descladinosyl-11,12-dideoxy-6-O-methyl-3-oxo-12,11-(oxycarbonyl-(1-((1H-benzo[d]imidazol-4-yl)-methyl)-(R)-pyrrolidin-3-yl)-imino)-erythromycin A [Example 9.06] | 4 | <0.06 | <0.06 | 0.25 | <0.06 |  |  |  |  | 
2 | 3-descladinosyl-11,12-dideoxy-6-O-methyl-3-oxo-12,11-(oxycarbonyl-(1-((isoquinolin-4-yl)-methyl)-azetidin-3-yl)-imino)-erythromycin A [Example 1.30] |  |  |  |  |  | 4 | <0.06 | <0.06 | 1 | <0.06
3 | 3-descladinosyl-11,12-dideoxy-6-O-methyl-3-oxo-12,11-(oxycarbonyl-(1-(quinoline-6-sulfonyl)-azetidin-3-yl)-imino)-erythromycin A [Example 3.89] |  |  |  |  |  | 8 | <0.06 | <0.06 | 1 | <0.06
4 | CCC(c1ccnc2ccccc12)N1CC(N2C(=O)OC3(C)C(CC)OC(=O)C(C)C(=O)C(C)C(OC4OC(C)CC(N(C)C)C4O)C(C)(OC)CC(C)C(=O)C(C)C23)C1 (mixture of isomers) [Example 1.61, 3-descladinosyl-11,12-dideoxy-6-O-methyl-3-oxo-12,11-(oxycarbonyl-(1-(1-(quinolin-4-yl)-propyl)-azetidin-3-yl)-imino)-erythromycin A] |  |  |  |  |  | 8 | <0.06 | 0.25 | 4 | <0.06
5 | CCC1OC(=O)C(C)C(=O)C(C)C(OC2OC(C)CC(N(C)C)C2O)C(C)(OC)CC(C)C(=O)C(C)C2N(C3CN(C(c4ccccc4)c4cccnc4)C3)C(=O)OC12C (single isomer, unassigned) [Example 1.66, phenyl-(pyridin-3-yl)methyl (*)] |  |  |  |  |  | 64 (≈ 76.6 µM) | 0.5 (≈ 0.599 µM) | <0.06 | 2 (≈ 2.4 µM) | <0.06
6 | CCC1OC(=O)C(C)C(=O)C(C)C(OC2OC(C)CC(N(C)C)C2O)C(C)(OC)CC(C)C(=O)C(C)C2N(C3CN(C(c4ccccc4)c4cccnc4)C3)C(=O)OC12C (single isomer, unassigned) [Example 1.67, phenyl-(pyridin-3-yl)methyl (*)] |  |  |  |  |  | 16 (≈ 19.2 µM) | <0.06 | <0.06 | 0.5 (≈ 0.599 µM) | <0.06
7 | CCC1OC(=O)C(C)C(=O)C(C)C(OC2OC(C)CC(N(C)C)C2O)C(C)(OC)CC(C)C(=O)C(C)C2N(C3CN(C(c4ccccc4)c4ccncc4)C3)C(=O)OC12C (single isomer, unassigned) [Example 1.68, phenyl-(pyridin-4-yl)methyl (*)] |  |  |  |  |  | 32 (≈ 38.3 µM) | 4 (≈ 4.79 µM) | <0.06 | 4 (≈ 4.79 µM) | <0.06
8 | CCC1OC(=O)C(C)C(=O)C(C)C(OC2OC(C)CC(N(C)C)C2O)C(C)(OC)CC(C)C(=O)C(C)C2N(CC3CN(C(=O)c4cc(F)ccc4F)C3)C(=O)OC12C (centres unmarked) [4.02] |  |  |  |  |  | 100 (≈ 122 µM) | 0.5 (≈ 0.608 µM) | 0.5 (≈ 0.608 µM) | 3.12 (≈ 3.8 µM) | 0.01 (≈ 0.0122 µM)
9 | CCC1OC(=O)C(C)C(=O)C(C)C(OC2OC(C)CC(N(C)C)C2O)C(C)(OC)CC(C)C(=O)C(C)C2N(CC3CN(C(=O)c4cccnc4)C3)C(=O)OC12C (centres unmarked) [4.03] |  |  |  |  |  | >100.00 | 0.39 (≈ 0.496 µM) | 0.78 (≈ 0.991 µM) | 1.56 (≈ 1.98 µM) | 0.02 (≈ 0.0254 µM)
10 | CCC1OC(=O)C(C)C(=O)C(C)C(OC2OC(C)CC(N(C)C)C2O)C(C)(OC)CC(C)C(=O)C(C)C2N(CC3CN(Cc4cccnc4)C3)C(=O)OC12C (centres unmarked) [4.04] |  |  |  |  |  | >64.00 | 16 (≈ 20.7 µM) | 0.25 (≈ 0.323 µM) | 0.5 (≈ 0.647 µM) | <0.06
11 | CCC1OC(=O)C(C)C(=O)C(C)C(OC2OC(C)CC(N(C)C)C2O)C(C)(OC)CC(C)C(=O)C(C)C2N(CC3CN(C(=O)c4ccncc4)C3)C(=O)OC12C (centres unmarked) [4.05] |  |  |  |  |  | >64.00 | 2 (≈ 2.54 µM) | 1 (≈ 1.27 µM) | 4 (≈ 5.08 µM) | 0.02 (≈ 0.0254 µM)
12 | CCC1OC(=O)C(C)C(=O)C(C)C(OC2OC(C)CC(N(C)C)C2O)C(C)(OC)CC(C)C(=O)C(C)C2N(CC3CN(C(=O)c4cccc(C#N)c4)C3)C(=O)OC12C (centres unmarked) [4.06] |  |  |  |  |  | >100.00 | 12.5 (≈ 15.4 µM) | 0.39 (≈ 0.481 µM) | 3.12 (≈ 3.85 µM) | 0.02 (≈ 0.0247 µM)
13 | CCC1OC(=O)C(C)C(=O)C(C)C(OC2OC(C)CC(N(C)C)C2O)C(C)(OC)CC(C)C(=O)C(C)C2N(CC3CN(S(=O)(=O)c4cccc(C#N)c4)C3)C(=O)OC12C (centres unmarked) [4.07] |  |  |  |  |  | >64.00 | 24 (≈ 28.3 µM) | 0.19 (≈ 0.224 µM) | 1 (≈ 1.18 µM) | <0.06
14 | CCC1OC(=O)C(C)C(=O)C(C)C(OC2OC(C)CC(N(C)C)C2O)C(C)(OC)CC(C)C(=O)C(C)C2N(C3CN(Cc4cccc(-n5ccnn5)c4)C3)C(=O)OC12C (centres unmarked) [Example 1.56, 3-([1,2,3]triazol-1-yl)benzyl] |  |  |  |  |  | >64.00 | <0.06 | <0.06 | 1 (≈ 1.21 µM) | 
15 | CCC1OC(=O)C(C)C(=O)C(C)C(OC2OC(C)CC(N(C)C)C2O)C(C)(OC)CC(C)C(=O)C(C)C2N(C3CN(Cc4ccc(-n5ccnc5)cc4)C3)C(=O)OC12C (centres unmarked) [Example 1.57, 4-(imidazol-1-yl)benzyl] |  |  |  |  |  | 64 (≈ 77.7 µM) | <0.06 | <0.06 | 1 (≈ 1.21 µM) | 
16 | CCC1OC(=O)C(C)C(=O)C(C)C(OC2OC(C)CC(N(C)C)C2O)C(C)(OC)CC(C)C(=O)C(C)C2N(C3CN(Cc4ccccc4OC(F)(F)F)C3)C(=O)OC12C (centres unmarked) [Example 1.88, 3-descladinosyl-11,12-dideoxy-6-O-methyl-3-oxo-12,11-(oxycarbonyl-(1-(2-(trifluoromethoxy)benzene-1-methyl)-azetidin-3-yl)-imino)-erythromycin A] |  |  |  |  |  | 8 (≈ 9.5 µM) |  |  | 0.5 (≈ 0.594 µM) | <0.063
17 | CCC1OC(=O)C(C)C(=O)C(C)C(OC2OC(C)CC(N(C)C)C2O)C(C)(OC)CC(C)C(=O)C(C)C2N(C3CN(S(=O)(=O)c4c(Cl)nc5sccn45)C3)C(=O)OC12C (centres unmarked) [Example 3.97, 3-descladinosyl-11,12-dideoxy-6-O-methyl-3-oxo-12,11-(oxycarbonyl-(1-(6-chloroimidazo[2,1-b]thiazole-5-sulfonyl)-azetidin-3-yl)-imino)-erythromycin A] |  |  |  |  |  | 1 (≈ 1.13 µM) | 0.25 (≈ 0.281 µM) | <0.063 | 0.125 (≈ 0.141 µM) | 
